# Results as given in PMC11862990, “Utility of 6-aza-2-thiothymine in the synthesis of novel [1,2,4]triazolo[4,3-b][1,2,4]triazin-7-one derivatives: synthesis, structure elucidation, molecular docking and in vitro anti-lung cancer activity” (RSC Advances, 2025).
# Several values for one entry are separate records, joined by “and”; a condition that tells them apart may be missing. Equal entries are not always repeated. Where two headings read alike, the source gives them in different places.
# How the values were obtained:
# [1] = system: PACA2 (pancreatic cancer cell line); test: MTT cytotoxicity assay, PACA2; format: cell-based; conditions: Homo sapiens; for cytotoxicity at 100 µg/mL: read-out: (%) Mortality PACA2
# Experimental: (§1) Using specific human cancer cell lines, the anti-proliferative effectiveness of compounds 7a–j was evaluated in an in vitro assay. The anti-cancer activity of these compounds (7a–j) on various cancer cell lines, including PC3 (Prostate cell line), A549 (Lung carcinoma), PACA2 (Pancreatic cancer cell line) and BJ1 (normal skin fibroblast), was investigated in this study using the 3-(4,5-dimethylthiazol-2-yl)-2,5-diphenyltetrazolium bromide (MTT) test. Doxorubicin (Dox) was the standard medication used as a positive control.
# (§2) All incubations were performed at 37 °C in a 5% CO2 incubator with a 95% humidified environment (Sheldon, TC2323; Cornelius, OR, USA). 96-well micro titer polypropylene plates were seeded with cells at a density of 10^4 cells per well in complete DMEM media, and the cells were allowed to adhere for 24 hours. After the media was aspirated, the tested compounds were added to the cells in a single dose of 100 μg ml^−1 in DMSO. Each well received 40 μl of MTT salt (2.5 g ml^−1) following a 48 hour incubation period. 200 μl of 10% sodium dodecyl sulfate (SDS) was added to each well after the reaction ended, and any formazan crystals that could have been produced were dissolved by two hours of incubator heating to 37 °C. The amount of formazan product was measured at 595 nm using a microplate reader (Bio-Rad Laboratories, model 3350, California, USA) with a reference wavelength of 690 nm, serving as a backdrop. Rather than the drugs under investigation, the medium was applied to the untreated cells (negative control). The examined compounds were dissolved in dimethylsulfoxide (DMSO), and the final concentration in the cells was less than 0.2%. For each compound and the control, the solvent concentration was the same.
# [2] = system: PC3 (prostate cell line); test: MTT cytotoxicity assay, PC3; format: cell-based; conditions: Homo sapiens, read-out: (%) Mortality PC3
# Experimental: as §1, §2
# [3] = system: BAX gene expression in lung cancer cell lines; test: qRT-PCR gene expression, BAX; format: cell-based, human; conditions: treated lung cancer cell line vs negative control; order 7g, Dox, 7a
# Experimental: The RNeasy Mini Kit (Qiagen, Hilden, Germany), augmented with a DNaseI (Qiagen) digestion step, was employed to extract total RNA from lung cancer cell lines following the manufacturer's procedure. The isolated total RNA was treated with one unit of RQ1 RNAse-free DNAse (Invitrogen, Germany) to eliminate DNA remnants, re-suspended in DEPC-treated water, and quantified photometrically at 260 nm. The purity of total RNA was evaluated using the 260/280 nm ratio, which ranged from 1.8 to 2.1.[27]
# Furthermore, integrity was confirmed using ethidium bromide-stained examination of 28S and 18S bands via formaldehyde-containing agarose gel electrophoresis. Aliquots were utilized immediately for reverse transcription (RT); otherwise, they were preserved at −80 °C.
# The poly(A) + RNA extracted from the lung cancer cell lines was reverse transcribed into the cDNA in a total amount of 20 μl utilizing the Revert Aid TM First Strand cDNA Synthesis Kit (Fermentas, Germany). A total of 5 μg of RNA was utilized with a master mix. The master mix comprised 50 mM MgCl2, 10× RT buffer (50 mM KCl; 10 mM Tris–HCl; pH 8.3), 10 mM of each dNTP, 50 μM oligo-dT primer, 20 IU ribonuclease inhibitor (50 kDa recombinant enzyme to suppress RNase activity), and 50 IU MuLV reverse transcriptase. Each sample mixture was centrifuged for 30 seconds at 1000 g and thereafter transferred to the thermocycler. The RT reaction was conducted at 25 °C for 10 minutes, subsequently at 42 °C for 1 hour, and concluded with a denaturation phase at 99 °C for 5 minutes. Subsequently, the reaction tubes containing RT-prepared samples were rapidly chilled in an ice chamber prior to cDNA amplification via the quantitative real-time polymerase chain reaction (qRT-PCR).
# The cDNA copy number of lung cancer cell lines was determined using the StepOne™ Real-Time PCR System from Applied Biosystems (Thermo Fisher Scientific, Waltham, MA, USA). […]
# The reaction protocol was divided into three stages. […] The relative quantification of the target gene to the reference gene was assessed using the 2^−ΔΔCT method.[29–31]
# [4] = system: BJ1 (normal skin fibroblast)
# Experimental: Using specific human cancer cell lines, the anti-proliferative effectiveness of compounds 7a–j was evaluated in an in vitro assay. The anti-cancer activity of these compounds (7a–j) on various cancer cell lines, including PC3 (Prostate cell line), A549 (Lung carcinoma), PACA2 (Pancreatic cancer cell line) and BJ1 (normal skin fibroblast), was investigated in this study using the 3-(4,5-dimethylthiazol-2-yl)-2,5-diphenyltetrazolium bromide (MTT) test.
# In the initial screening trial, a single dosage concentration of 100 μg ml^−1 was applied for 48 hours. The cytotoxicity of the treated cells was determined by calculating the cell death percentage (% mortality) as a percentage of untreated cells (Table 2).
# Cell viability was tested using the MTT assay, 3-(4,5-dimethylthiazol-2-yl)-2,5-diphenyl-tetrazolium bromide (Bio Basic Canada Inc. Toronto, Canada).[26] Under class II biosafety regulations, the procedures were carried out in a sterile laminar air flow cabinet (Baker, SG403INT; Sanford, ME, USA). Cell lines were obtained from the American type culture collection (ATCC) as a gift from Dr Stig Linder, Karonisca Institute, Sweden. All incubations were performed at 37 °C in a 5% CO2 incubator with a 95% humidified environment (Sheldon, TC2323; Cornelius, OR, USA). 96-well micro titer polypropylene plates were seeded with cells at a density of 10^4 cells per well in complete DMEM media, and the cells were allowed to adhere for 24 hours. After the media was aspirated, the tested compounds were added to the cells in a single dose of 100 μg ml^−1 in DMSO. Each well received 40 μl of MTT salt ([…]) following a 48 hour incubation period. 200 μl of 10% sodium dodecyl sulfate (SDS) was added to each well after the reaction ended, and any formazan crystals that could have been produced were dissolved by two hours of incubator heating to 37 °C. The amount of formazan product was measured at 595 nm using a microplate reader (Bio-Rad Laboratories, model 3350, California, USA) with a reference wavelength of 690 nm, serving as a backdrop. Rather than the drugs under investigation, the medium was applied to the untreated cells (negative control). The examined compounds were dissolved in dimethylsulfoxide (DMSO), and the final concentration in the cells was less than 0.2%. For each compound and the control, the solvent concentration was the same.
# [5] = PaCa-2, 100 μg ml^−1, 48 hours, MTT
structure (smiles),measurement,setting,value
"Cc1nn2c(C)nn(-c3ccc([N+](=O)[O-])cc3)c2nc1=O [Compound 7a, 3,6-Dimethyl-1-(4-nitrophenyl)-[1,2,4]triazolo[4,3-b][1,2,4]triazin-7(1H)-one]",cytotoxicity at 100 µg/mL,[1]; [5],20.4 ± 0.11%
same,cytotoxicity at 100 µg/mL,"[2]; 100 μg ml^−1, 48 hours, MTT",28.2 ± 0.25%
same,BAX (pro-apoptotic gene) expression level,[3],elevated
same,(%) Mortality BJ1 (cytotoxicity percentage on normal cells),"[4]; 100 μg ml^−1, 48 hours, MTT",3.5% and 3.5 ± 1.16%
"COc1ccc(-c2nn(-c3ccccc3)c3nc(=O)c(C)nn23)cc1 [Compound 7g, 3-(4-Methoxyphenyl)-6-methyl-1-phenyl-[1,2,4]triazolo[4,3-b][1,2,4]triazin-7(1H)-one]",cytotoxicity at 100 µg/mL,[1]; [5],13.4 ± 1.15%
same,cytotoxicity at 100 µg/mL,"[2]; 100 μg ml^−1, 48 hours, MTT",14.6 ± 0.92%
same,BAX (pro-apoptotic gene) expression level,[3],elevated
same,(%) Mortality BJ1 (cytotoxicity percentage on normal cells),"[4]; 100 μg ml^−1, 48 hours, MTT",2.8% and 2.8 ± 0.71%
"COc1cccc2c1C(=O)c1c(O)c3c(c(O)c1C2=O)C[C@@](O)(C(=O)CO)C[C@@H]3O[C@H]1C[C@H](N)[C@H](O)[C@H](C)O1 [Dox, Doxorubicin, reference compound]",cytotoxicity at 100 µg/mL,"[1]; PaCa-2, 48 h",100%
same,IC50,"[1]; PaCa-2, MTT, 48 hour incubation",52.1 µM
same,cytotoxicity at 100 µg/mL,[2]; 48 h,100%
same,BAX (pro-apoptotic gene) expression level,[3],elevated
same,(%) Mortality BJ1 (cytotoxicity percentage on normal cells),"[4]; human, 48 h, 100 μg ml^−1",1.10 ± 0.52%
